This passage reports logP and logD results from the SangsterLogP compilation.

Data set [1] in a line: method code SF, from DOI: 10.1002/tera.1420200312, PMID: 120615. As to conditions: pH 7.4.

Take `O=C(O)c1cc(I)cc(I)c1O`: the logP – broadly, a log measure of how a compound divides between an organic and an aqueous phase – came to 4.2. On the same count and under the same terms, as for `O=C(Nc1ccccc1)c1ccccc1O`, the figure is 3.25; as for `Oc1ccc(Cl)cc1Cc1cc(Cl)ccc1O`, 4.26. As to `CC/C(=C(/CC)c1ccc(O)cc1)c1ccc(O)cc1`, the logD (as a rule, the decadic logarithm of the distribution of all forms, ionised or not, between an organic phase and buffer at a given pH) in data set [1] was determined as 4.76. The same measure, in the same setting: as for `Cc1ccccc1O`, the figure is 1.93; as for `Cc1cc(O)c(C(C)C)cc1Cl`, 3.92. Turning to `CCCCC(=O)O`, the logP came to 1.39. `CCCCCCCC(=O)O` registered a logP of 3.05. Same read-out and setting: to `O=C(O)c1cccnc1` belongs -0.46. On the same count and under the same terms, to `C=CCCCCCCCCC(=O)O` belongs 3.86. On to `CCC(=O)O`, for which the logP was 0.32.
